Results from paper PMC5303205, “Comparative studies on the multi-component pharmacokinetics of Aristolochiae Fructus and honey-fried Aristolochiae Fructus extracts after oral administration in rats” (BMC Complementary and Alternative Medicine, 2017).
Where two headings read alike, the source gives them in different places.

Columns and labels:
[1] = Multi-component pharmacokinetics of AAs in rats after oral administration of AF and HAF extracts (HPLC-MS/MS of plasma); parameters: species or system Sprague–Dawley (SD) rats; conditions: Sprague-Dawley, rat, in vivo
How it was run: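 Rats were fasted 12 h and given AF or HAF extracts orally in 0.5% CMC–Na at 3.0, 8.0 or 15.0 mg/kg (as AA I), n = 6 per group. Ocular-vein plasma was sampled 0–24 h, ethyl-acetate extracted with internal standard, and analysed by C18 HPLC-MS/MS (positive ESI, MRM). Cmax was observed and other parameters model-fitted.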

[2] = Stability of AAs in rat plasma (QC samples, HPLC-MS/MS); format: in vitro ADME; conditions: n = 5; for Short-term stability (RSD/%): fresh rat plasma at room temperature for 24 h before sample preparation; for Post-preparation stability (RSD/%): prepared rat plasma samples at room temperature for 24 h; for Long-term stability (RSD/%): rat plasma stored at –20 °C for 14 days; for Freeze-thaw stability (RSD/%): rat plasma, three freeze-thaw cycles (–20 °C 24 h, thawed at room temperature)
How it was run: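 Rat plasma QC samples tested over three freeze-thaw cycles (–20 °C 24 h, thawed at room temperature), 14 days at –20 °C, 24 h at room temperature before preparation, and 24 h post-preparation, by HPLC-MS/MS. Mean concentrations compared with freshly prepared samples; bias within ±15% accepted.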

[3] = 3 mg/kg, AF extract, low dose (3.0 mg/kg as AA I), analyte dose mg/kg: AA I 3.0, AA II 0.21, AA C 1.42, AA D 1.60, 7-OH AA I 2.33, n = 6
[4] = 3 mg/kg, HAF extract, low dose (3.0 mg/kg as AA I), analyte dose mg/kg: AA I 3.0, AA II 0.26, AA C 1.53, AA D 1.51, 7-OH AA I 2.48, n = 6
[5] = 8 mg/kg, AF extract, mid dose (8.0 mg/kg as AA I), analyte dose mg/kg: AA I 8.0, AA II 0.56, AA C 3.78, AA D 4.26, 7-OH AA I 6.22, n = 6
[6] = 8 mg/kg, HAF extract, mid dose (8.0 mg/kg as AA I), analyte dose mg/kg: AA I 8.0, AA II 0.69, AA C 4.09, AA D 4.03, 7-OH AA I 6.62, n = 6
[7] = 15 mg/kg, AF extract, high dose (15.0 mg/kg as AA I), analyte dose mg/kg: AA I 15.0, AA II 1.05, AA C 7.09, AA D 8.00, 7-OH AA I 11.66, n = 6
[8] = 15 mg/kg, HAF extract, high dose (15.0 mg/kg as AA I), analyte dose mg/kg: AA I 15.0, AA II 1.29, AA C 7.66, AA D 7.56, 7-OH AA I 12.41, n = 6
[9] = high QC conc ng/mL: AA I 1830, AA II 3200, AA C 2980, AA D 3680, 7-OH AA I 3280
[10] = low QC conc ng/mL: AA I 1.83, AA II 8.00, AA C 186.3, AA D 36.8, 7-OH AA I 82.0
[11] = middle QC conc ng/mL: AA I 457.5, AA II 400, AA C 372.5, AA D 460, 7-OH AA I 410

COc1cccc2c1cc([N+](=O)[O-])c1c(C(=O)O)cc3c(c12)OCO3 [AA I]
AUC(0-inf) [1, 3]: 6.08 ± 1.26 µg·h/mL | Cmax [1, 3]: 1.7 ± 0.571 µg/mL | Tmax [1, 3]: 0.5 ± 0.09 h | CL/F ([1]; 3 mg/kg, AF extract, low dose (3.0 mg/kg as AA I), analyte dose mg/kg: AA I 3.0, AA II 0.21, AA C 1.42, AA D 1.60, 7-OH AA I 2.33, n = 6, read-out: CLz/F (converted)): 0.57 L/h/kg | Vd/F ([1]; 3 mg/kg, AF extract, low dose (3.0 mg/kg as AA I), analyte dose mg/kg: AA I 3.0, AA II 0.21, AA C 1.42, AA D 1.60, 7-OH AA I 2.33, n = 6, read-out: Vz/F): 2.85 ± 0.15 L/kg | half-life ([1]; 3 mg/kg, AF extract, low dose (3.0 mg/kg as AA I), analyte dose mg/kg: AA I 3.0, AA II 0.21, AA C 1.42, AA D 1.60, 7-OH AA I 2.33, n = 6, read-out: t 1/2z (converted)): 3.5 ± 0.5 h | AUC(0-inf) [1, 4]: 5.23 ± 0.896 µg·h/mL | Cmax [1, 4]: 1.07 ± 0.223 µg/mL | Tmax [1, 4]: 0.39 ± 0.08 h | CL/F ([1]; 3 mg/kg, HAF extract, low dose (3.0 mg/kg as AA I), analyte dose mg/kg: AA I 3.0, AA II 0.26, AA C 1.53, AA D 1.51, 7-OH AA I 2.48, n = 6, read-out: CLz/F (converted)): 0.59 L/h/kg | Vd/F ([1]; 3 mg/kg, HAF extract, low dose (3.0 mg/kg as AA I), analyte dose mg/kg: AA I 3.0, AA II 0.26, AA C 1.53, AA D 1.51, 7-OH AA I 2.48, n = 6, read-out: Vz/F): 2.75 ± 0.24 L/kg | half-life ([1]; 3 mg/kg, HAF extract, low dose (3.0 mg/kg as AA I), analyte dose mg/kg: AA I 3.0, AA II 0.26, AA C 1.53, AA D 1.51, 7-OH AA I 2.48, n = 6, read-out: t 1/2z (converted)): 3.22 ± 0.46 h | AUC(0-inf) [1, 5]: 12.8 ± 1.86 µg·h/mL | Cmax [1, 5]: 3.82 ± 0.45 µg/mL | Tmax [1, 5]: 0.56 ± 0.09 h | CL/F ([1]; 8 mg/kg, AF extract, mid dose (8.0 mg/kg as AA I), analyte dose mg/kg: AA I 8.0, AA II 0.56, AA C 3.78, AA D 4.26, 7-OH AA I 6.22, n = 6, read-out: CLz/F (converted)): 0.65 L/h/kg | Vd/F ([1]; 8 mg/kg, AF extract, mid dose (8.0 mg/kg as AA I), analyte dose mg/kg: AA I 8.0, AA II 0.56, AA C 3.78, AA D 4.26, 7-OH AA I 6.22, n = 6, read-out: Vz/F): 5.4 ± 0.48 L/kg | half-life ([1]; 8 mg/kg, AF extract, mid dose (8.0 mg/kg as AA I), analyte dose mg/kg: AA I 8.0, AA II 0.56, AA C 3.78, AA D 4.26, 7-OH AA I 6.22, n = 6, read-out: t 1/2z (converted)): 5.58 ± 0.65 h | AUC(0-inf) [1, 6]: 8.99 ± 1.78 µg·h/mL | Cmax [1, 6]: 2 ± 0.313 µg/mL | Tmax [1, 6]: 0.42 ± 0.08 h | CL/F ([1]; 8 mg/kg, HAF extract, mid dose (8.0 mg/kg as AA I), analyte dose mg/kg: AA I 8.0, AA II 0.69, AA C 4.09, AA D 4.03, 7-OH AA I 6.62, n = 6, read-out: CLz/F (converted)): 0.68 L/h/kg | Vd/F ([1]; 8 mg/kg, HAF extract, mid dose (8.0 mg/kg as AA I), analyte dose mg/kg: AA I 8.0, AA II 0.69, AA C 4.09, AA D 4.03, 7-OH AA I 6.62, n = 6, read-out: Vz/F): 4.58 ± 0.37 L/kg | half-life ([1]; 8 mg/kg, HAF extract, mid dose (8.0 mg/kg as AA I), analyte dose mg/kg: AA I 8.0, AA II 0.69, AA C 4.09, AA D 4.03, 7-OH AA I 6.62, n = 6, read-out: t 1/2z (converted)): 4.72 ± 0.52 h | AUC(0-inf) [1, 7]: 26.8 ± 3.26 µg·h/mL | Cmax [1, 7]: 5.89 ± 0.425 µg/mL | Tmax [1, 7]: 0.69 ± 0.1 h | CL/F ([1]; 15 mg/kg, AF extract, high dose (15.0 mg/kg as AA I), analyte dose mg/kg: AA I 15.0, AA II 1.05, AA C 7.09, AA D 8.00, 7-OH AA I 11.66, n = 6, read-out: CLz/F (converted)): 0.87 L/h/kg | Vd/F ([1]; 15 mg/kg, AF extract, high dose (15.0 mg/kg as AA I), analyte dose mg/kg: AA I 15.0, AA II 1.05, AA C 7.09, AA D 8.00, 7-OH AA I 11.66, n = 6, read-out: Vz/F): 7.13 ± 0.57 L/kg | half-life ([1]; 15 mg/kg, AF extract, high dose (15.0 mg/kg as AA I), analyte dose mg/kg: AA I 15.0, AA II 1.05, AA C 7.09, AA D 8.00, 7-OH AA I 11.66, n = 6, read-out: t 1/2z (converted)): 5.46 ± 0.53 h | AUC(0-inf) [1, 8]: 11.8 ± 1.77 µg·h/mL | Cmax [1, 8]: 3.47 ± 0.352 µg/mL | Tmax [1, 8]: 0.47 ± 0.08 h | CL/F ([1]; 15 mg/kg, HAF extract, high dose (15.0 mg/kg as AA I), analyte dose mg/kg: AA I 15.0, AA II 1.29, AA C 7.66, AA D 7.56, 7-OH AA I 12.41, n = 6, read-out: CLz/F (converted)): 0.72 L/h/kg | Vd/F ([1]; 15 mg/kg, HAF extract, high dose (15.0 mg/kg as AA I), analyte dose mg/kg: AA I 15.0, AA II 1.29, AA C 7.66, AA D 7.56, 7-OH AA I 12.41, n = 6, read-out: Vz/F): 5.53 ± 0.52 L/kg | half-life ([1]; 15 mg/kg, HAF extract, high dose (15.0 mg/kg as AA I), analyte dose mg/kg: AA I 15.0, AA II 1.29, AA C 7.66, AA D 7.56, 7-OH AA I 12.41, n = 6, read-out: t 1/2z (converted)): 5.32 ± 0.54 h | Short-term stability (RSD/%) [2, 9]: 6.5% | Short-term stability (RSD/%) [2, 10]: 0.58% | Short-term stability (RSD/%) [2, 11]: 8.7% | Post-preparation stability (RSD/%) [2, 9]: 4.5% | Post-preparation stability (RSD/%) [2, 10]: 0.65% | Post-preparation stability (RSD/%) [2, 11]: 2.0% | Long-term stability (RSD/%) [2, 9]: 7.6% | Long-term stability (RSD/%) [2, 10]: 0.28% | Long-term stability (RSD/%) [2, 11]: 6.9% | Freeze-thaw stability (RSD/%) [2, 9]: 12.9% | Freeze-thaw stability (RSD/%) [2, 10]: 1.1% | Freeze-thaw stability (RSD/%) [2, 11]: 10.3%
